Measurements as given in PubChem BioAssay (NCI).
Values joined by “and” are separate entries in the source; they are usually repeats but may differ in a detail not shown here. Identical values can stand only once.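 Test compounds were applied to cells in 96-well plates for 48 hours at 5 doses. GI50 is the concentration that inhibits growth by half. TGI: concentration producing complete growth inhibition.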 Where a SMILES comes first, the peptide text is derived from it. [ ]: non-standard residue; d: D form. The star is where a group is joined. ξ: configuration not given here. NMeF = CN[C@@H](Cc1ccccc1)C(=O)O; NMeV = CN[C@H](C(=O)O)C(C)C; ξNMeV = CNC(C(=O)O)C(C)C; Boc = CC(C)(C)OC(=O)*; OBn = c1ccc(CO*)cc1

Tests used:
Test in all cases: DTP human tumour cell line panel, 48 h
[1] = test system: UO-31 renal
[2] = test system: RXF 393 renal
[3] = test system: SNB-75 CNS
[4] = test system: SF-539 CNS
[5] = test system: COLO 205 colon
[6] = test system: MCF7 breast
[7] = test system: NCI-H522 lung
[8] = test system: MALME-3M melanoma
[9] = test system: PC-3 prostate
[10] = test system: BT-549 breast

CC(C)(C)OC(=O)N1N=CCC1c1ccccc1 (configuration not stated)
TGI [1]: > 100 µM
TGI [2]: > 100 µM
TGI [3]: > 100 µM
TGI [4]: > 100 µM
TGI [5]: > 100 µM
TGI [6]: > 100 µM
TGI [7]: > 100 µM

COC(=O)C(CCC1(C)OCCO1)=[N+]=[N-]
TGI [1]: > 100 µM
TGI [8]: > 100 µM
TGI [2]: > 100 µM
TGI [3]: > 100 µM
TGI [4]: > 100 µM
TGI [5]: > 100 µM
TGI [7]: > 100 µM

CCOS(=O)(=O)c1ccc(-c2c3nc(c(-c4ccc(S(=O)(=O)OCC)cc4)c4ccc([nH]4)c(-c4ccc(S(=O)(=O)OCC)cc4)c4nc(c(-c5ccc(S(=O)(=O)OCC)cc5)c5ccc2[nH]5)C=C4)C=C3)cc1
TGI [1]: > 31.6 µM
TGI [8]: > 31.6 µM
TGI [2]: > 31.6 µM
TGI [9]: > 31.6 µM
TGI [4]: > 31.6 µM
TGI [5]: > 31.6 µM
TGI [6]: > 31.6 µM
TGI [7]: > 31.6 µM
TGI [10]: > 31.6 µM

CC(C)C(C(=O)N(C)[C@H](C(=O)N1CCC[C@H]1C(=O)N(C)[C@@H](Cc1ccccc1)C(=O)OCc1ccccc1)C(C)C)N(C)C(=O)[C@@H](NC(=O)OC(C)(C)C)C(C)C (some centres not stated) (Boc-V[ξNMeV][NMeV]P[NMeF]-OBn)
TGI [1]: > 31.6 µM
TGI [8]: > 100 µM
TGI [2]: > 31.6 µM
TGI [3]: > 100 µM
TGI [4]: > 31.6 µM
TGI [5]: 35.2 µM
TGI [7]: > 100 µM

CCNC(=S)NNC(=O)c1ccccc1Nc1ccccc1C(=O)NNC(=S)NCC
TGI [1]: > 100 µM
TGI [8]: > 100 µM
TGI [3]: > 100 µM
TGI [9]: > 100 µM
TGI [5]: > 100 µM
TGI [6]: > 100 µM
TGI [7]: > 100 µM
TGI [10]: > 100 µM

O=S(O)c1cc(Cl)c(O)c(Cl)c1
TGI [1]: > 100 µM
TGI [8]: > 100 µM
TGI [2]: > 100 µM
TGI [3]: > 100 µM
TGI [4]: > 100 µM
TGI [7]: > 100 µM

CC(=O)NC(C)(C)C1CCC(C)CC1 (configuration not stated)
TGI [1]: > 100 µM
TGI [8]: > 100 µM
TGI [2]: > 100 µM
TGI [3]: > 100 µM
TGI [9]: > 100 µM
TGI [4]: > 100 µM
TGI [5]: > 100 µM
TGI [6]: > 100 µM
TGI [10]: > 100 µM

O=c1[nH]c2ccc(CC(=S)N3CCOCC3)cc2o1
TGI [8]: > 100 µM
TGI [2]: > 100 µM
TGI [3]: > 100 µM
TGI [9]: > 100 µM
TGI [4]: > 100 µM
TGI [5]: > 100 µM
TGI [6]: > 100 µM
TGI [10]: > 100 µM

COc1cc(O)c(Cc2ccccc2O)c(O)c1C(=O)CCc1ccccc1
TGI [1]: 23.4 µM
TGI [8]: 15.8 µM
TGI [2]: 18.9 µM
TGI [3]: 19.7 µM
TGI [4]: 15.7 µM
TGI [5]: 16.5 µM
TGI [6]: 18 µM
TGI [7]: 9.21 µM

N#COc1ccc(Oc2ccc(OC#N)cc2)cc1
TGI [1]: > 100 µM
TGI [8]: > 100 µM
TGI [2]: > 100 µM
TGI [3]: > 100 µM
TGI [4]: > 100 µM
TGI [5]: 54 µM
TGI [7]: > 100 µM

O=C1CC(c2ccccc2)n2c(nc3ccccc32)N1 (configuration not stated)
TGI [1]: > 100 µM
TGI [8]: > 100 µM
TGI [2]: > 100 µM
TGI [9]: > 100 µM
TGI [4]: > 100 µM
TGI [5]: > 100 µM
TGI [6]: > 100 µM
TGI [7]: > 100 µM
TGI [10]: > 100 µM

CC1OC(O[C@@H]2C=C3CC[C@@H]4[C@H](CC[C@]5(C)[C@@H](c6ccc(=O)oc6)CC[C@]45O)[C@@]3(C)CC2)C(O)C(OC2OC(CO)C(O)C(O)C2O)C1O (some centres not stated)
TGI [1]: 0.00316 µM and 0.0263 µM
GI50 [8]: 0.628 nM
TGI [8]: 0.0143 µM
GI50 [3]: 0.974 nM
TGI [3]: 0.0587 µM and 0.0407 µM
TGI [9]: 0.00942 µM
TGI [4]: 0.000699 µM
GI50 [5]: 0.949 nM
TGI [5]: 0.163 µM and 0.029 µM
GI50 [6]: 0.196 nM
TGI [6]: 0.0804 µM and 0.0468 µM
TGI [7]: 0.000427 µM
